Reference: PubChem BioAssay AID330 (DTP/NCI, 2004)
Values joined by “and” are separate entries in the source; they are usually repeats but may differ in a detail not shown here. Equal entries are not always repeated. Toxic doses and inconclusive results are not listed.

Test system: P388 leukemia ip, CD2F1 mice, survival T/C
Test: NCI In Vivo Anticancer Drug Screen. Data for tumor model P388 Leukemia (intraperitoneal) in CD2F1 (CDF1) mice
Conditions: endpoint: median survival time, higher = longer survival
How it was run: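 Mice carrying the transplanted tumor received test compound or vehicle. Survival was recorded in each group, and the value is the treated-group measurement divided by that of the vehicle-treated control group.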

O=P1(N(CCCl)CCCl)NCCCO1 (centres undefined)
T/C (dose: 4.0 mg/kg/injection, schedule: Q01DX009 (ip), vehicle: saline): 116 % of control and 122 % of control
T/C (dose: 6.25 mg/kg/injection, schedule: Q01DX009 (ip), vehicle: saline): 150 % of control and 151 % of control
T/C (dose: 8.0 mg/kg/injection, schedule: Q01DX009 (ip), vehicle: saline): 150 % of control
T/C (dose: 10.0 mg/kg/injection, schedule: Q04DX003 (iv), vehicle: saline): 119 % of control
T/C (dose: 12.5 mg/kg/injection, schedule: Q01DX009 (ip), vehicle: saline): 153 % of control and 185 % of control and 192 % of control
T/C (dose: 15.0 mg/kg/injection, schedule: Q04DX003 (ip), vehicle: saline): 150 % of control
T/C (dose: 16.0 mg/kg/injection, schedule: Q01DX009 (ip), vehicle: saline): 183 % of control and 188 % of control
T/C (dose: 16.2 mg/kg/injection, schedule: Q04DX003 (ip), vehicle: saline): 153 % of control
T/C (dose: 20.0 mg/kg/injection, schedule: Q01DX009 (ip), vehicle: saline): 187 % of control
T/C (dose: 20.0 mg/kg/injection, schedule: Q04DX003 (ip), vehicle: water): 164 % of control
T/C (dose: 20.0 mg/kg/injection, schedule: Q04DX003 (iv), vehicle: saline): 158 % of control
T/C (dose: 22.2 mg/kg/injection, schedule: Q01DX009 (ip), vehicle: saline): 213 % of control
T/C (dose: 25.0 mg/kg/injection, schedule: Q04DX003 (ip), vehicle: water): 110 % of control
T/C (dose: 27.0 mg/kg/injection, schedule: Q04DX003 (ip), vehicle: saline): 178 % of control
T/C (dose: 28.8 mg/kg/injection, schedule: Q01DX005 (ip), vehicle: saline): 190 % of control
T/C (dose: 30.0 mg/kg/injection, schedule: Q01DX010 (ip), vehicle: water): 272 % of control
T/C (dose: 30.0 mg/kg/injection, schedule: Q04DX003 (ip), vehicle: saline): 195 % of control
T/C (dose: 31.3 mg/kg/injection, schedule: Q01DX001 (iv), vehicle: saline): 174 % of control
T/C (dose: 32.4 mg/kg/injection, schedule: Q04DX002 (ip), vehicle: saline): 163 % of control and 178 % of control
T/C (dose: 33.3 mg/kg/injection, schedule: Q01DX009 (ip), vehicle: saline): 261 % of control
T/C (dose: 36.0 mg/kg/injection, schedule: Q01DX009 (ip), vehicle: saline): 258 % of control
T/C (dose: 38.9 mg/kg/injection, schedule: Q04DX003 (ip), vehicle: saline): 227 % of control
T/C (dose: 40.0 mg/kg/injection, schedule: Q04DX003 (ip), vehicle: saline): 197 % of control and 204 % of control
T/C (dose: 40.0 mg/kg/injection, schedule: Q04DX003 (ip), vehicle: water): 225 % of control
T/C (dose: 40.0 mg/kg/injection, schedule: Q04DX003 (iv), vehicle: saline): 203 % of control
T/C (dose: 45.0 mg/kg/injection, schedule: Q01DX010 (ip), vehicle: water): 240 % of control
T/C (dose: 45.0 mg/kg/injection, schedule: Q04DX003 (ip), vehicle: saline): 324 % of control
T/C (dose: 48.0 mg/kg/injection, schedule: Q01DX005 (ip), vehicle: saline): 240 % of control
T/C (dose: 48.0 mg/kg/injection, schedule: Q01DX009 (ip), vehicle: saline): 118 % of control
T/C (dose: 50.0 mg/kg/injection, schedule: Q01DX001 (ip), vehicle: water): 157 % of control and 160 % of control
T/C (dose: 50.0 mg/kg/injection, schedule: Q01DX009 (ip), vehicle: water): 103 % of control
T/C (dose: 50.0 mg/kg/injection, schedule: Q04DX003 (ip), vehicle: water): 198 % of control and 214 % of control
T/C (dose: 54.0 mg/kg/injection, schedule: Q04DX002 (ip), vehicle: saline): 209 % of control and 213 % of control
T/C (dose: 60.0 mg/kg/injection, schedule: Q01DX009 (ip), vehicle: saline): 99 % of control
T/C (dose: 60.0 mg/kg/injection, schedule: Q04DX003 (ip), vehicle: saline): 274 % of control
T/C (dose: 62.5 mg/kg/injection, schedule: Q01DX001 (iv), vehicle: saline): 220 % of control
T/C (dose: 64.0 mg/kg/injection, schedule: Q01DX009 (ip), vehicle: saline): 187 % of control and 194 % of control
T/C (dose: 64.8 mg/kg/injection, schedule: Q04DX003 (ip), vehicle: saline): 317 % of control
T/C (dose: 70.0 mg/kg/injection, schedule: Q04DX003 (ip), vehicle: saline): 225 % of control
T/C (dose: 73.0 mg/kg/injection, schedule: Q04DX003 (ip), vehicle: saline): 300 % of control
T/C (dose: 75.0 mg/kg/injection, schedule: Q01DX009 (ip), vehicle: saline): 157 % of control
T/C (dose: 75.0 mg/kg/injection, schedule: Q01DX010 (ip), vehicle: water): 118 % of control
T/C (dose: 75.0 mg/kg/injection, schedule: Q04DX003 (ip), vehicle: saline): 358 % of control
T/C (dose: 80.0 mg/kg/injection, schedule: Q01DX001 (ip), vehicle: saline): 155 % of control
T/C (dose: 80.0 mg/kg/injection, schedule: Q04DX003 (ip), vehicle: saline): 216 % of control and 284 % of control
T/C (dose: 80.0 mg/kg/injection, schedule: Q04DX003 (ip), vehicle: water): 269 % of control
T/C (dose: 80.0 mg/kg/injection, schedule: Q04DX003 (iv), vehicle: saline): 194 % of control
T/C (dose: 90.0 mg/kg/injection, schedule: Q04DX002 (ip), vehicle: saline): 220 % of control and 228 % of control
T/C (dose: 100.0 mg/kg/injection, schedule: Q01DX001 (ip), vehicle: water): 199 % of control and 221 % of control
T/C (dose: 100.0 mg/kg/injection, schedule: Q04DX003 (ip), vehicle: water): 288 % of control and 324 % of control
T/C (dose: 108.0 mg/kg/injection, schedule: Q04DX003 (ip), vehicle: saline): 152 % of control
T/C (dose: 119.0 mg/kg/injection, schedule: Q01DX001 (ip), vehicle: saline): 245 % of control
T/C (dose: 125.0 mg/kg/injection, schedule: Q01DX001 (iv), vehicle: saline): 350 % of control
T/C (dose: 125.0 mg/kg/injection, schedule: Q04DX003 (ip), vehicle: saline): 189 % of control and 196 % of control
T/C (dose: 150.0 mg/kg/injection, schedule: Q04DX002 (ip), vehicle: saline): 394 % of control and 409 % of control
T/C (dose: 150.0 mg/kg/injection, schedule: Q## X001 (ip), vehicle: saline): 111 % of control and 231 % of control and 260 % of control
T/C (dose: 160.0 mg/kg/injection, schedule: Q01DX001 (ip), vehicle: saline): 114 % of control and 232 % of control
T/C (dose: 165.0 mg/kg/injection, schedule: Q04DX003 (ip), vehicle: saline): 221 % of control
T/C (dose: 180.0 mg/kg/injection, schedule: Q04DX003 (ip), vehicle: saline): 118 % of control
T/C (dose: 200.0 mg/kg/injection, schedule: Q01DX001 (ip), vehicle: water): 281 % of control and 291 % of control
T/C (dose: 250.0 mg/kg/injection, schedule: Q01DX001 (ip), vehicle: saline): 98 % of control
T/C (dose: 250.0 mg/kg/injection, schedule: Q01DX001 (iv), vehicle: saline): 353 % of control
T/C (dose: 320.0 mg/kg/injection, schedule: Q01DX001 (ip), vehicle: saline): 215 % of control and 252 % of control
T/C (dose: 600.0 mg/kg/injection, schedule: Q01DX001 (ip), vehicle: water): 100 % of control
